One assay deals with A549. Briefly: Cytotoxicity against A549 cells after 72 hrs by SRB assay. Format: functional, cell-based. The following applies: Homo sapiens, A549, 72 h. On the technique in general: The SRB assay estimates cell density from bound dye.
In another assay the test system is SW1573. Briefly: Cytotoxicity against SW1573 cells after 72 hrs by SRB assay. Format: functional, cell-based. The following applies: Homo sapiens, SW1573, 72 h.

With `CCCCCCCCCCCC(=O)Nc1ccn([C@@H]2CO[C@H](CO)O2)c(=O)n1`, the half-inhibitory concentration (IC50) in the assay on A549 was 0.015 µM; in the assay on SW1573, 0.03 µM.
For the molecule `CC(=O)Nc1ccn([C@@H]2CO[C@H](CO)O2)c(=O)n1`, the IC50 stood at 6.87 µM in the assay with A549 and 10.7 µM with SW1573.
The like results for `O=C(Nc1ccn([C@@H]2CO[C@H](CO)O2)c(=O)n1)c1ccc(F)cc1` were, in that order, 8.67 µM and 15.3 µM.
On to `O=C(Nc1ccn([C@@H]2CO[C@H](CO)O2)c(=O)n1)c1ccc(Cl)cc1`, for which the results for the IC50 in the assay on A549 and with SW1573 were 0.41 µM and 2.77 µM, respectively.
The like results for `CCCCCCC(=O)Nc1ccn([C@@H]2CO[C@H](CO)O2)c(=O)n1` were, in that order, 1.04 µM and 2.4 µM.
Take `O=C(Nc1ccn([C@@H]2CO[C@H](CO)O2)c(=O)n1)c1ccc(Br)cc1`: the half-maximal inhibitory concentration (IC50) in the assay on A549 was determined as 4.53 µM; in the assay with SW1573 it was 8.87 µM.
Take `O=C(Nc1ccn([C@@H]2CO[C@H](CO)O2)c(=O)n1)C1CCCC1`: the IC50 in the assay on A549 amounted to 2.97 µM; in the assay with SW1573, 8.8 µM.
Regarding `O=C(Nc1ccn([C@@H]2CO[C@H](CO)O2)c(=O)n1)c1ccc(Cl)cc1Cl`, the IC50 in the assay on A549 is 9.83 µM; in the assay with SW1573, 14.3 µM.
For `O=C(Nc1ccn([C@@H]2CO[C@H](CO)O2)c(=O)n1)C1CC1`, the IC50 in the assay with A549 was found to be 18.7 µM; in the assay on SW1573, 22 µM.
The like results for `O=C(Nc1ccn([C@@H]2CO[C@H](CO)O2)c(=O)n1)c1ccccc1` were, in that order, 8.53 µM and 13.7 µM.
The like results for `CCCCCCCCCCCCCCCC(=O)Nc1ccn([C@@H]2CO[C@H](CO)O2)c(=O)n1` were, in that order, 0.004 µM and 0.02 µM.
On the same counts, the results for `CCCCCCCCCCCCCCCCCCCC(=O)Nc1ccn([C@@H]2CO[C@H](CO)O2)c(=O)n1` are 0.03 µM and 0.15 µM.
With `CCCC(=O)Nc1ccn([C@@H]2CO[C@H](CO)O2)c(=O)n1`, the half-maximal inhibitory concentration (IC50) in the assay with A549 amounted to 6.6 µM; in the assay on SW1573, 8.07 µM.
As to `CCCCCCCCCCCCCCCCCC(=O)Nc1ccn([C@@H]2CO[C@H](CO)O2)c(=O)n1`, the figures for the concentration for half-maximal inhibition (IC50) in the assay on A549 and with SW1573 were 0.025 µM and 0.125 µM, respectively.
`CCCCC(=O)Nc1ccn([C@@H]2CO[C@H](CO)O2)c(=O)n1`: the IC50 in the assay with A549 was 5.23 µM; in the assay on SW1573, 9.13 µM.
Regarding `CCCCCCCCC(=O)Nc1ccn([C@@H]2CO[C@H](CO)O2)c(=O)n1`, the figures for the IC50 in the assay with A549 and with SW1573 were 0.046 µM and 0.276 µM, respectively.
For the molecule `O=C(Nc1ccn([C@@H]2CO[C@H](CO)O2)c(=O)n1)C1CCCCC1`, the half-inhibitory concentration (IC50) in the assay on A549 came out at 7.37 µM; in the assay on SW1573, 14 µM.
For `COc1ccc(C(=O)Nc2ccn([C@@H]3CO[C@H](CO)O3)c(=O)n2)cc1`, the IC50 in the assay with A549 worked out at 3.5 µM; in the assay with SW1573 it was 10 µM.
For `CCCCCCCCCCCCCCCCCCCCCC(=O)Nc1ccn([C@@H]2CO[C@H](CO)O2)c(=O)n1`, the 50% inhibitory concentration (IC50) was determined as 0.5 µM with A549 and 0.9 µM in the assay with SW1573.
For the molecule `CCCCCCCCCC(=O)Nc1ccn([C@@H]2CO[C@H](CO)O2)c(=O)n1`, the IC50 was determined as 0.024 µM in the assay with A549 and 0.04 µM in the assay with SW1573.
On the same counts, the results for `Nc1ccn([C@@H]2O[C@H](CO)[C@@H](O)C2(F)F)c(=O)n1` [GEMCITABINE] are 13.1 µM and 8.3 µM.
In the case of `Nc1ccn([C@@H]2CO[C@H](CO)O2)c(=O)n1` [TROXACITABINE], the results for the IC50 with A549 and in the assay with SW1573 were 0.68 µM and 2.3 µM, respectively.

Broadly, the IC50 is the concentration needed to halve the response being measured. Read a low IC50 as higher potency.
